Holding throughout (assay type): cell-based, human
Assay [1] concerns liver cancer cells (HepG2). In words: Organ-on-a-chip containing liver cancer cells, doxorubicin treatment, optical microscope. The settings on record: 100 μM doxorubicin in media supply chamber; 24 hours after treatment; HepG2 cultured 2 days on chip; compared with control group. As for the experimental part: As for one set of a media supply chamber and a media recovery chamber included in the organ-on-a-chip of the present invention fabricated in Example 1, 200 μl of media (Minimum Essential Media Eagle (MEM, high-glucose, Gibco) supplemented with 25 mM HEPES (4-(2-hydroxyethyl)-1-piperazineethanesulfonic acid, Gibco), 25 mM NaHCO3 (Sodium bicarbonate, Sigma-Aldrich), 10% (v/v) FBS, and P/S (100 Uml-1penicillin/100 Uml-1streptomycin, Sigma-Aldrich Co., MO)) was loaded in each of the chambers. The flow of media was connected between each chamber by using a pipette, and then the media was filled inside the media channel located at both sides to finally form the flow of media. Particularly, it was confirmed that a boundary of the media was formed between the media channel and the cell chamber due to surface tension, with the inverted micro-weir structure serving as a boundary. […]
After 100 μM doxorubicin was added to the media supply chamber of the organ-on-a-chip containing liver cancer cells (HepG2) fabricated in Example 2-3-1, a change of liver cancer cells in the organ-on-a-chip due to doxorubicin was observed using an optical microscope, and the degree of damage to the liver cancer cells was compared and analyzed with a control group (FIG. 8). […]

For assay [2], the system named is cervical cancer cells (HeLa). In words: Organ-on-a-chip containing cervical cancer cells, doxorubicin treatment, optical microscope. Particulars: 100 μM doxorubicin in media supply chamber; 24 hours after treatment; HeLa cultured 2 days on chip; compared with control group. As for the experimental part:
(§1) As for one set of a media supply chamber and a media recovery chamber included in the organ-on-a-chip of the present invention fabricated in Example 1, 200 μl of media (Dulbecco Modified Eagle Medium (DMEM, Gibco) supplemented with 10% FBS) was loaded in each of the chambers. The flow of media was connected between each chamber by using a pipette, and then the media was filled inside the media channel located at both sides to finally form the flow of media. Particularly, it was confirmed that a boundary of the media was formed between the media channel and the cell chamber due to surface tension, with the inverted micro-weir structure serving as a boundary.
Then, 3×10^4 cervical cancer cells (HeLa) were injected into the cell inlet by using a pipette, and the injected cervical cancer cells (HeLa) were injected into the cell chamber by pipetting. […] Subsequently, the cells were cultured in a humidified incubator for 2 days under the conditions of 37° C. and 5% CO2.
After 100 μM doxorubicin was added to the media supply chamber of the organ-on-a-chip containing cervical cancer cells (HeLa) fabricated in Example 2-2-1, a change in cervical cancer cells in the organ-on-a-chip due to doxorubicin was observed using an optical microscope, and the degree of damage to the cervical cancer cells was compared and analyzed with a control group (FIG. 7). […]

Assay [3] concerns breast cancer cells (MCF-7). In words: Organ-on-a-chip containing breast cancer cells, doxorubicin treatment, optical microscope. The settings on record: 100 μM doxorubicin in media supply chamber; 24 hours after treatment; MCF-7 cultured 2 days on chip; compared with control group. Here is the method: as §1, with “(RPMI 1640 (Gibco)” for “(Dulbecco Modified Eagle Medium (DMEM, Gibco)”, “fetal bovine serum (FBS, Gibco))” for “FBS)”
Then, 3×10^4 breast cancer cells (Michigan Cancer Foundation-7, MCF-7) were injected into the cell inlet by using a pipette, and the injected breast cancer cells were injected into the cell chamber by pipetting. […] Subsequently, the cells were cultured in a humidified incubator for 2 days under the conditions of 37° C. and 5% CO2.
After 100 μM doxorubicin (TOCRIS) was added to the media supply chamber of the organ-on-a-chip containing breast cancer cells fabricated in Example 2-1-1, a change in breast cancer cells in the organ-on-a-chip due to doxorubicin was observed using an optical microscope, and the degree of damage to the breast cancer cells was compared and analyzed with a control group (FIG. 6). […]

Take `COc1cccc2c1C(=O)c1c(O)c3c(c(O)c1C2=O)C[C@@](O)(C(=O)CO)C[C@@H]3O[C@H]1C[C@H](N)[C@H](O)[C@H](C)O1` [doxorubicin]: the “degree of damage to the liver cancer cells (cell death)” value in assay [1] is “most of the liver cancer cells cultured in the organ-on-a-chip were dead”. Besides, the “degree of damage to the cervical cancer cells (cell death)” value in assay [2] is on record as “most of the cervical cancer cells cultured in the organ-on-a-chip were dead”. For the same compound, in assay [3], the “degree of damage to the breast cancer cells (cell death)” value is “most of the breast cancer cells cultured in the organ-on-a-chip were dead”.

These data come from patent US20250110113A1, “HUMAN ORGAN-ON-A-CHIP HAVING REVERSE MICRO-WEIR STRUCTURE AND USES THEREOF” (HUMANASE, priority 2022, published 2025).
